Columns and labels:
Type in all cases: biochemical
MMP-3 = biological target: T1, MMP-3 (Homo sapiens, UniProt P08254); test: Automated MMP Profiling Assay, MMP-3 fluorogenic; details: for IC50: 96-well automated, P218
T1 construct: Truncated Prostromelysin-257 was expressed in a soluble form in E.coli; made in house; host or cells: E. coli
Source text: This assay with each invention compound was run with the three enzymes MMP-3, MMP-9 and MMP-2 in parallel as adapted for a 96-well microtitre plate using a Hamilton A® workstation.

MMP-9 = biological target: T2, MMP-9 (Homo sapiens, UniProt P14780); test: Automated MMP Profiling Assay, MMP-9 fluorogenic; details: for IC50: 96-well automated, P218
T2 construct: from tissue; host or cells: human polymorphonuclear leukocytes (PMN) from whole blood (New York Blood Center), PMA-stimulated supernatant

MMP-2 = biological target: T3, MMP-2 (Homo sapiens, UniProt P08253); test: Automated MMP Profiling Assay, MMP-2 fluorogenic; details: for IC50: 96-well automated, P218, read-out: MMP-2 Fluorogenic IC50 (profiling)
T3 sequence (P08253 110-660): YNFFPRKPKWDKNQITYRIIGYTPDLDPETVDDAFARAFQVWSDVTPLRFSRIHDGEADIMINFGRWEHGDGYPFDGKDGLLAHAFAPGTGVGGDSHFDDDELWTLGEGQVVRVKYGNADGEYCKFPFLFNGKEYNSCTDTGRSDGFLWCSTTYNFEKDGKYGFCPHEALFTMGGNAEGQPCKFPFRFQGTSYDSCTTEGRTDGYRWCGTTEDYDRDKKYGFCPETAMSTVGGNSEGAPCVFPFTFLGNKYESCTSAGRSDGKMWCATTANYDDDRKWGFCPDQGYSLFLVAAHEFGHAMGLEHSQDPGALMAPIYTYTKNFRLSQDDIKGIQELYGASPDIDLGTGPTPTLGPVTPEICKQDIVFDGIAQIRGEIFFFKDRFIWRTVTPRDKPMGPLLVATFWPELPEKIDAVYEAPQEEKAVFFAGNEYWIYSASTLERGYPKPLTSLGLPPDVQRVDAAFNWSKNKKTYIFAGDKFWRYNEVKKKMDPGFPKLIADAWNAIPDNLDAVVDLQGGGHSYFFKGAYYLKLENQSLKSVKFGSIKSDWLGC

T2 sequence (P14780 107-707 limits assumed): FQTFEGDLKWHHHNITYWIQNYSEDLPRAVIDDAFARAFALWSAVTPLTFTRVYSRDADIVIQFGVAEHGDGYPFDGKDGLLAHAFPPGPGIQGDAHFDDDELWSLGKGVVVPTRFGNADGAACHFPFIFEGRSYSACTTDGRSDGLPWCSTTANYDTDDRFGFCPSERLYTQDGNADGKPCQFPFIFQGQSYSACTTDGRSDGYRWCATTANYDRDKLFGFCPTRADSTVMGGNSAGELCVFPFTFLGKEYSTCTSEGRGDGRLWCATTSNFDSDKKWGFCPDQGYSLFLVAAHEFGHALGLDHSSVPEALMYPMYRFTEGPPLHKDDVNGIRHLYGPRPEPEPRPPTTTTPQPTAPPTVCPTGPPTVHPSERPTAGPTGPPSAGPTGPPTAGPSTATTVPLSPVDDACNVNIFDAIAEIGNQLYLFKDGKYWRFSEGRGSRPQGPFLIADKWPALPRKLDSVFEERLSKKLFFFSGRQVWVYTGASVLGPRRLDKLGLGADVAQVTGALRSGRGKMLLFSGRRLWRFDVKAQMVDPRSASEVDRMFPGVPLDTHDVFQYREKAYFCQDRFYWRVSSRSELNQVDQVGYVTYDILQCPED
T1 sequence (P08254 100-274 limits assumed): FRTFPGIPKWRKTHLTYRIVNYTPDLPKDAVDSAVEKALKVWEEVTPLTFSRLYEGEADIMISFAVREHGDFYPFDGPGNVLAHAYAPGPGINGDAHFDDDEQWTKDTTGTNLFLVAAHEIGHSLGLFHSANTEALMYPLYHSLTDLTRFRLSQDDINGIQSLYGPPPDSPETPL

SMILES	IC50 (MMP-3) [nM]	IC50 (MMP-9) [nM]	IC50 (MMP-2) [nM]	inhibition at 5 µM (MMP-3; at 5 μM) [%]	inhibition at 5 µM (MMP-9) [%]	inhibition at 5 µM (MMP-2; at 5 μM) [%]
CCCCCOc1ccc(-c2ccc(C(=O)CC(CCc3ccccc3)C(=O)O)cc2)cc1 (stereo not drawn) [Example 158, [1,1'-Biphenyl]-4-butanoic acid, γ-oxo-4'-(pentyloxy)-α-(2-phenylethyl)-]	37	> 500	32			
O=C(c1ccc(-c2ccc(Cl)cc2)cc1)[C@H]1CCN(C(=O)CCc2ccccc2)[C@@H]1C(=O)O [Example 169, L-Proline, 3-[(4'-chloro[1,1'-biphenyl]-4-yl)carbonyl]-1-(1-oxo-3-phenylpropyl)-, trans-]	245	1080	80			
CCCCCCc1ccc(-c2ccc(CCC(CCCc3ccccc3)C(=O)O)cc2)cc1 (stereo not drawn) [Example 357, [1,1'-Biphenyl]-4-butanoic acid, 4'-hexyl-α-(3-phenylpropyl)-]				15	4	38
O=C(CC(CCc1cccc(I)c1)C(=O)O)c1ccc(-c2ccc(Cl)cc2)cc1 (stereo not drawn) [Example 127, [1,1'-Biphenyl]-4-butanoic acid, 4'-chloro-α[2-(3-iodophenyl)ethyl]-γ-oxo-]	605	1220	40			
O=C(O)[C@H]1[C@H](CSc2nc3ccccc3o2)CC[C@@H]1C(=O)c1ccc(-c2ccc(Cl)cc2)cc1 (relative stereo) [Example 384, Cyclopentanecarboxylic acid, 2-[(2-benzoxazolylthio)methyl]-5-[(4'-chloro[1,1'-biphenyl]-4-yl)carbonyl]-, (1α,2β,5β)-]	129	167	78			
O=C(c1ccc(-c2ccc(Cl)cc2)cc1)[C@H]1CCN(C(=O)Cc2ccccc2)[C@@H]1C(=O)O [Example 170, L-Proline, 3-[(4'-chloro[1,1'-biphenyl]-4-yl)carbonyl]-1-(phenylacetyl)-, trans-]	296	1800	103			
O=C(NC[C@@H]1CC[C@H](C(=O)c2ccc(-c3ccc(Cl)cc3)cc2)[C@H]1C(=O)O)OCc1ccccc1 (relative stereo) [Example 377]	24	44	28			
O=C(CC(CCCc1ccccc1)C(=O)O)c1ccc(-c2ccc(OCc3ccncc3)cc2)cc1 (stereo not drawn) [Example 111, [1,1'-Biphenyl]-4-butanoic acid, γ-oxo-α-(3-phenylpropyl)-4'-(4-pyridinylmethoxy)-]	18	4730	3.9			
O=C(O)[C@H]1[C@H](CN2C(=O)c3cc(Cl)c([N+](=O)[O-])cc3C2=O)CC[C@@H]1C(=O)c1ccc(-c2ccc(Cl)cc2)cc1 (relative stereo) [Example 390, Cyclopentanecarboxylic acid, 2-[(4'-chloro[1,1'-biphenyl]-4-yl)carbonyl]-5-[(5-chloro-1,3-dihydro-6-nitro-1,3-dioxo-2H-isoindol-2-yl)methyl]-, (1α,2β,5β)-]	10	1.2	15			
O=C(CC(CCc1cccc(I)c1)C(=O)O)c1ccc(-c2ccc(OCc3ccccc3)cc2)cc1 (stereo not drawn) [Example 163, [1,1'-Biphenyl]-4-butanoic acid, α-[2-(3-iodophenyl)ethyl]-γ-oxo-4'-(phenylmethoxy)-]	64		17		18	
COC/C=C/c1ccc(-c2ccc(C(=O)CC(CCCc3ccccc3)C(=O)O)cc2)cc1 (stereo not drawn) [Example 353, [1,1'-Biphenyl]-4-butanoic acid, 4'-(3-methoxy-1-propenyl)-γ-oxo-α-(3-phenylpropyl)-, (E)-]	84	274	20			
COC(=O)c1cc(F)ccc1SCC(CC(=O)c1ccc(-c2ccc(Cl)cc2)cc1)C(=O)O (stereo not drawn) [Example 434, [1,1'-Biphenyl]-4-butanoic acid, 4'-chloro-α-[[[4-fluoro-2-(methoxycarbonyl)phenyl]thio]methyl]-γ-oxo-]	254	1140	61			
